The text below walks through data of US8912184B1, “Therapeutic and diagnostic methods” (Alzheimer's Institute of America, Inc., priority 2010, dated 2014).

The experiment has as its system HCT116 cells. Kind of experiment: Nicotinic Acid Rescue Cytotoxicity Assay, first method: cytotoxicity to HCT116 cells in presence and absence of 10 μM nicotinic acid. It counts as cell-based. Conditions: Homo sapiens, HCT-116, 72 h. As for the experimental part: Additionally, Nicotinic Acid (NA) rescue of cytotoxicity of Nampt inhibitors was assessed by two distinct methods. In the first method, Nampt1 inhibitor cytotoxicity was evaluated in the presence and absence of exogenous nicotinic acid (NA) at a fixed concentration. […] Twenty four hours after cells were plated, the media was removed and replaced with media containing 10 μM nicotinic acid. Compounds were then immediately added. Cell viability was then assessed at 72 h.
Using the first of the two assays described above, the 90 compounds shown in Table 5, below, were tested for cytotoxicity towards Naprt1-proficient HCT116 cells, and for the ability of NA to block the observed cytotoxicity (or “rescue” the cells from the cytotoxic activity of the tested compound). The compounds listed are referred to by a unique rescue analysis example number (i.e., R1, R2 . . . R90) that is used as a reference number in Table 4, in which the results of the cytotoxicity and rescue assays are presented.

Where [1] appears, read: absence of nicotinic acid, read-out: HCT116 72 h cytotoxicity.
Setting [2] is: presence of 10 μM nicotinic acid, read-out: HCT116 72 h cytotoxicity with 10 μM Nicotinic Acid.

Read-outs that look alike come from different tables or passages of the source.

For the compound `O=C(NCc1ccc(NS(=O)(=O)c2ccccc2-c2ccccc2)cc1)Nc1ccncc1` [Example R65, N-(4-{[(pyridin-4-ylcarbamoyl)amino]methyl}phenyl)biphenyl-2-sulfonamide], the IC50 is 0.5 nM under setting [1] and greater than 1000 nM under setting [2].

Regarding `O=C(NCCCCCOc1ccccc1-c1ccccc1)NCc1cccnc1` [Example R85, 1-[5-(Biphenyl-2-yloxy)pentyl]-3-(pyridin-3-ylmethyl)urea], the IC50 under setting [1] was 1.3 nM and the IC50 under setting [2] was greater than 5000 nM.

Consider `O=C(NCc1cccnc1)Nc1ccc(NC(=O)c2ccccc2-c2ccccc2)cc1` [Example R55, N-(4-{[(pyridin-3-ylmethyl)carbamoyl]amino}phenyl)biphenyl-2-carboxamide], for which the IC50 was 48.8 nM under setting [1] and greater than 1000 nM under setting [2].

Turning to `Cc1cnccc1N/C(=N/C#N)NCCCCCCOc1ccc(Cl)cc1` [Example R38, 1-[6-(4-Chlorophenoxy)hexyl]-2-cyano-3-(3-methylpyridin-4-yl)guanidine], the IC50 was 1.4 nM under setting [1] and greater than 10000 nM under setting [2].

In the case of `N#C/N=C(\NCCCCCCOc1ccc(Cl)cc1)Nc1ccc(Br)nc1` [Example R36, 1-(6-Bromopyridin-3-yl)-2-[6-(4-chlorophenoxy)hexyl]-3-cyanoguanidine], the IC50 was 6000 nM under setting [1] and greater than 10000 nM under setting [2].

As for `O=C(NCc1cccnc1)Nc1ccc(NS(=O)(=O)c2sccc2Br)cc1` [Example R71, 3-bromo-N-(4-{[(pyridin-3-ylmethyl)carbamoyl]amino}phenyl) thiophene-2-sulfonamide], the IC50 was 13.2 nM under setting [1] and greater than 5000 nM under setting [2].

Regarding `O=C(NCc1cccnc1)c1ccc(NCc2ccccc2-c2ccccc2)cc1` [Example R27, 4-[(Biphenyl-2-ylmethyl)amino]-N-(pyridin-3-ylmethyl)benzamide], the IC50 reads like this: under setting [1], 87.1 nM; under setting [2], 37000 nM.

Turning to `O=C(NCc1cccnc1)c1ccc(NCc2ccccc2OC(F)(F)F)cc1` [Example R8, N-(Pyridin-3-ylmethyl)-4-{[2-(trifluoromethoxy)benzyl]amino}benzamide], the IC50 under setting [1] turned out to be 3130 nM and the IC50 under setting [2] is greater than 10000 nM.

For the compound `O=C(NCc1cccnc1)Nc1ccc(C(=O)Nc2ccccc2-c2ccccc2)cc1` [Example R58, N-(biphenyl-2-yl)-4-{[(pyridin-3-ylmethyl)carbamoyl]amino}benzamide], the IC50 under setting [1] was determined as 1.6 nM and the IC50 under setting [2] is greater than 10000 nM.

Turning to `O=C(NCc1cccnc1)Nc1ccc(NS(=O)(=O)c2c(F)cc(F)cc2Br)cc1` [Example R61, 2-bromo-4,6-difluoro-N-(4-{[(pyridin-3-ylmethyl)carbamoyl]amino}phenyl)benzene-sulfonamide], the IC50 is, setting by setting: under setting [1], 1.8 nM; under setting [2], greater than 1000 nM.

For `O=C(NCc1cccnc1)Nc1ccc(NS(=O)(=O)c2cc(C(F)(F)F)ccc2Br)cc1` [Example R57, 2-Bromo-N-(4-{[(pyridin-3-ylmethyl)carbamoyl]amino}phenyl)-5-(trifluoromethyl)benzenesulfonamide], the IC50 was 0.5 nM under setting [1] and greater than 10000 nM under setting [2].

In the case of `CC(C)c1cccc(-c2ccccc2CNc2ccc(C(=O)NCc3cccnc3)cc2)c1` [Example R25, 4-({[3′-(Propan-2-yl)biphenyl-2-yl]methyl}amino)-N-(pyridin-3-ylmethyl)benzamide], the IC50 was determined as 8330 nM under setting [1] and 37000 nM under setting [2].

`O=C(CNc1ccccc1Oc1ccccc1)Nc1ccc(C(=O)NCc2cccnc2)cc1` [Example R19, 4-{[N-(2-Phenoxyphenyl)glycyl]amino}-N-(pyridin-3-ylmethyl)benzamide]: the IC50 by setting is: under setting [1], 586 nM; under setting [2], greater than 50000 nM.

In the case of `O=C(NCc1cccnc1)Nc1ccc(S(=O)(=O)Nc2ccccc2Cl)cc1` [Example R54, N-(2-chlorophenyl)-4-{[(pyridin-3-ylmethyl)carbamoyl]amino} benzenesulfonamide], the IC50 was 71.5 nM under setting [1] and greater than 10000 nM under setting [2].

Consider `O=C(NCc1cccnc1)Nc1ccc(COc2ccccc2-c2ccccc2)cc1` [Example R64, 1-{4-[(Biphenyl-2-yloxy)methyl]phenyl}-3-(pyridin-3-ylmethyl)urea], for which the IC50 is 0.2 nM under setting [1] and greater than 10000 nM under setting [2].

Regarding `CCOC(=O)c1c[nH]c2ccc(C(=O)Nc3ccc(C(=O)NCc4cccnc4)cc3)cc2c1=O` [Example R53, ethyl 4-oxo-6-({4-[(pyridin-3-ylmethyl)carbamoyl]phenyl}carbamoyl)-1,4-dihydroquinoline-3-carboxylate], the IC50 reads like this: under setting [1], 6.8 nM; under setting [2], greater than 10000 nM.

Take `O=C(NCc1cccnc1)Nc1ccc(NS(=O)(=O)c2ccccc2Br)cc1` [Example R33, 2-Bromo-N-(4-{[(pyridin-3-ylmethyl)carbamoyl]amino}phenyl)benzene-sulfonamide]: the IC50 reads like this: under setting [1], 4.6 nM; under setting [2], greater than 50000 nM.

On to `O=C(NCc1cccnc1)Nc1ccc(NS(=O)(=O)c2ccccc2Br)cc1F` [Example R56, 2-bromo-N-(3-fluoro-4-{[(pyridin-3-ylmethyl)carbamoyl]amino}phenyl)benzene-sulfonamide], for which the IC50 reads like this: under setting [1], 50 nM; under setting [2], greater than 1000 nM.

As to `O=C(Nc1ccc(C(=O)NCc2cccnc2)cc1)Nc1ccc(Cl)c(Cl)c1` [Example R12, 4-{[(3,4-Dichlorophenyl)carbamoyl]amino}-N-(pyridin-3-ylmethyl)benzamide], the IC50 was 9640 nM under setting [1] and 24800 nM under setting [2].

For the compound `O=C(CNCc1ccccc1Br)Nc1ccc(C(=O)NCc2cccnc2)cc1` [Example R18, 4-{[N-(2-Bromobenzyl)glycyl]amino}-N-(pyridin-3-ylmethyl)benzamide], the IC50 was 6810 nM under setting [1] and greater than 50000 nM under setting [2].

On to `O=C(NCc1cccnc1)Nc1ccc(COc2ccccc2-c2cccnc2)cc1` [Example R83, 1-(Pyridin-3-ylmethyl)-3-(4-{[2-(pyridin-3-yl)phenoxy]methyl}phenyl)urea], for which the IC50 under setting [1] was found to be 1.5 nM and the IC50 under setting [2] is greater than 5000 nM.

For `CCn1cc(-c2ccccc2OCc2ccc(NC(=O)NCc3cccnc3)cc2)cn1` [Example R84, 1-(4-{[2-(1-Ethyl-1H-pyrazol-4-yl)phenoxy]methyl}phenyl)-3-(pyridin-3-ylmethyl)urea], the IC50 is 10.8 nM under setting [1] and greater than 5000 nM under setting [2].

For the compound `O=C(Nc1ccc(C(=O)NCc2cccnc2)cc1)Nc1cc(C(F)(F)F)cc(C(F)(F)F)c1` [Example R14, 4-({[3,5-Bis(trifluoromethyl)phenyl]carbamoyl}amino)-N-(pyridin-3-ylmethyl)benzamide], the IC50 under setting [1] amounted to 7390 nM and the IC50 under setting [2] amounted to 21500 nM.

Turning to `O=C(NCc1cccnc1)Nc1ccc(NS(=O)(=O)c2cc(Cl)ccc2Cl)cc1` [Example R74, 2,5-dichloro-N-(4-{[(pyridin-3-ylmethyl)carbamoyl]amino}phenyl)benzene-sulfonamide], the IC50 is, setting by setting: under setting [1], 2.3 nM; under setting [2], greater than 5000 nM.

`O=C(NCc1cccnc1)c1ccc(NC(=S)Nc2cccc(OCc3ccccc3)c2)cc1` [Example R15, 4-({[3-(Benzyloxy)phenyl]carbamothioyl}amino)-N-(pyridin-3-ylmethyl)benzamide]: the IC50 is 4690 nM under setting [1] and greater than 50000 nM under setting [2].

For the compound `O=C(/C=C/c1cccnc1)NCCCCC1CCN(C(=O)c2ccccc2)CC1` [Example R3, (2E)-N-[4-(1-Benzoylpiperidin-4-yl)butyl]-3-(pyridin-3-yl)prop-2-enamide], the IC50 by setting is: under setting [1], 1.4 nM; under setting [2], greater than 10000 nM.

As for `Cc1c(COc2ccc(C(=O)NCc3cccnc3)cc2)cccc1C(F)(F)F` [Example R24, 4-{[2-Methyl-3-(trifluoromethyl)benzyl]oxy}-N-(pyridin-3-ylmethyl)benzamide], the IC50 worked out at 12000 nM under setting [1] and 45000 nM under setting [2].

On to `O=C(NCc1cccnc1)Nc1ccc(NS(=O)(=O)c2ccccc2-c2ccn[nH]2)cc1` [Example R88, 2-(1H-Pyrazol-5-yl)-N-(4-{[(pyridin-3-ylmethyl)carbamoyl]amino}phenyl)benzene-sulfonamide], for which the IC50 under setting [1] amounted to 2.5 nM and the IC50 under setting [2] is greater than 5000 nM.

`CCOc1ccccc1NCC(=O)Nc1ccc(C(=O)NCc2cccnc2)cc1` [Example R21, 4-{[N-(2-Ethoxyphenyl)glycyl]amino}-N-(pyridin-3-ylmethyl)benzamide]: the IC50 is, setting by setting: under setting [1], 435 nM; under setting [2], greater than 50000 nM.

As for `O=C(NCc1cccnc1)Nc1ccc(NS(=O)(=O)c2cc(C(F)(F)F)ccc2Cl)cc1` [Example R69, 2-chloro-N-(4-{[(pyridin-3-ylmethyl)carbamoyl]amino}phenyl)-5-(trifluoromethyl)benzenesulfonamide], the IC50 runs as follows: under setting [1], 1.3 nM; under setting [2], greater than 1000 nM.

Turning to `O=C(NCc1ccc(NS(=O)(=O)c2cc(C(F)(F)F)ccc2Br)cc1)Nc1ccncc1` [Example R73, 2-bromo-N-(4-{[(pyridin-4-ylcarbamoyl)amino]methyl}phenyl)-5-(trifluoromethyl)benzenesulfonamide], the IC50 is, setting by setting: under setting [1], 1 nM; under setting [2], greater than 5000 nM.

As to `C#CCN(Cc1ccccc1-c1ccccc1)c1ccc(C(=O)NCc2cccnc2)cc1` [Example R9, 4-[(Biphenyl-2-ylmethyl)(prop-2-yn-1-yl)amino]-N-(pyridin-3-ylmethyl)benzamide], the IC50 reads like this: under setting [1], 41.5 nM; under setting [2], 12000 nM.
